From patent US4701521A, “Method of effecting cellular uptake of molecules” (The Trustees of Boston University, priority 1979, dated 1987)
Where two headings read alike, the source gives them in different places.

Legend:
L-929 fibroblasts = test: Cytocidal effects of 6-MPRP and 6-MPRP-PLL; assay type: cell-based, mouse
Description: […] After exposure to the free or conjugated drug, the monolayers were kept growing for 2 days in standard growth medium, at which time no cytocidal effect could be detected.

L929 fibroblast cells = test: Cellular uptake of HRP and conjugates as cell-associated peroxidase activity; assay type: cell-based, mouse
Description: The rate of color development measured at 460 nm (ΔA460 nm /min) was used as an indication of enzymatic activity, and the enzymatic activity measured in the cell extract was used as an expression of cellular uptake.
Following exposure to HRP, or one of its two conjugates, the monolayers of L 929 mouse fibroblasts were washed and detached and the detached cells were washed as described in Example 3. The cells were then lysed and the cell extract used for measurement of enzymatic activity of HRP as described in Example 6.

L929 fibroblasts = test: Cytochemical localization of HRP reaction product (light and electron microscopy); assay type: cell-based, mouse
[1] = tested on: BHK (DMN^ts) baby hamster kidney cell line; settings: for Cellular Uptake in 60 min.: 3 μg/ml
Method: This experiment was done with a baby hamster kidney cell line (BHK) transformed by exposure to dimethylnitrosamine (DMN), growing with a non-malignant phenotype at 32° C. and a malignant phenotype at 38.5° C. This temperature-sensitive mutant line, called BHK (DMN^ts) was described by G. DeMayorca et al. Proc. Natl. Acad. Sci U.S.A., 70, 46-49 (1973). The cells were grown as monolayers in Dulbecco's high glucose medium. The transition from normal to transformed phenotype requires 3 to 4 population doublings or approximately 56 hours of growth at 38.5° C. The reversion to the normal, non-malignant phenotype likewise require 3 to 4 population doublings or approximately 112 hours of growth at 32° C. […] At time 0, the growth media of the confluent monolayers were replaced by serum free medium prewarmed to 37° C. and containing 3 μg/ml radioiodinated polymer. The monolayers were then incubated for 60 min. at 37° C.

Sarcoma S-180 monolayers = settings: for Uptake, 1-min / Uptake, 60-min: 3 μg/ml ^125 I-PLL, 37° C.; for Uptake, 60-min (Corrected for Concentration of 79 nM): assuming uptake linear with concentration
Description: Poly-L-lysines of three different average molecular weights, i.e., 38,000, 115,000 and 230,000, were radio-iodinated using the Bolton-Hunter Reagent. See Bolton, A. E. and Hunter, W. M., Biochem J., 133, pp 529-38 (1973).

[2] = tested on: variant of the P 1798 lymphosarcoma, steroid-resistant, presumed MTX-sensitive; test: Antitumor effect (tumor weight), steroid-resistant variant; assay type: in vivo, BALB/c mice; settings: for Mean Tumor Weight: Mean ± SEM
Description: The inoculation developed into a palpable tumor within 7-8 days and killed the animal on the average within 14 days. Following inoculation, mice were divided into 4 groups of 4 or 5 mice.
Treatment consisted of one daily intravenous injection for 4 consecutive days, and was begun on Day 11 and Day 12 post-inoculation in experiment number 1 and 2 respectively. All animals were sacrificed one day after the last injection.

[3] = Normal phenotype, PLL MW 125,000, PDL MW 130,000

With O=P(O)(O)OC[C@H]1O[C@@H](n2cnc3c(=S)[nH]cnc32)[C@H](O)[C@@H]1O [6-MPRP, 6-mercaptopurine ribosylphosphate] the “growth inhibition, drug present for the duration of the experiment” value (L-929 fibroblasts; 2×10^-6 M) was “both compounds had inhibiting effects” and the “cell growth after subculture and 7 additional days” value (L-929 fibroblasts; 1 h exposure to combination of free 6-MPRP (1×10^-5 M) and free PLL) was “grew at a rate undistinguichable from that of controls”.

horseradish peroxidase [HRP] was tested, and the Cell-associated peroxidase activity (L929 fibroblast cells; Example 6, enzyme concentration in medium 150 μg/ml) was 0.14 ΔA460 nm /min/mg cell protein, the Cell-associated peroxidase activity (L929 fibroblast cells; Example 6, enzyme concentration in medium 1500 μg/ml) was 1.55 ΔA460 nm /min/mg cell protein and the “Cell-associated peroxidase activity” value (L929 fibroblast cells; Example 10, 60-minute exposure, 1.5 μg/ml in medium) was 0 ΔA460 nm /min/mg cell protein. The “Cell-associated peroxidase activity” value (L929 fibroblast cells; Example 10, 60-minute exposure, 15 μg/ml in medium) was 0 ΔA460 nm /min/mg cell protein, the “staining of HRP reaction products, light microscopy” value (L929 fibroblasts; 60' exposure, HRP 150 μg/ml, HRP-PLL 1.5, 5 and 15 μg/ml) was “minimal staining” and the “HRP reaction product, electron microscopy” value (L929 fibroblasts; HRP at 100-time greater concentration than HRP-PLL) was “minimal amounts of stained reaction product”.

In the case of poly-D-lysine [PDL], the “Transformed/Normal (uptake ratio)” value [1] is reported as 1, the “Cellular Uptake in 60 min.” value [1, 3] is reported as 685 ng/mg cell protein and the “Cellular Uptake in 60 min.” value ([1]; Transformed phenotype) is reported as 680 ng/mg cell protein.

In the case of poly-L-lysine [PLL (MW 38,000)], the “Uptake, 1-min” value (Sarcoma S-180 monolayers) is reported as 18.8 ng/mg cell protein, the “Uptake, 60-min” value (Sarcoma S-180 monolayers) is reported as 349.4 ng/mg cell protein and the “Uptake, 60-min (Corrected for Concentration of 79 nM)” value (Sarcoma S-180 monolayers) is reported as 349 ng/mg cell protein.

poly-L-lysine [PLL (MW 115,000)] was tested, and the “Uptake, 1-min” value (Sarcoma S-180 monolayers) was 112.3 ng/mg cell protein, the “Uptake, 60-min” value (Sarcoma S-180 monolayers) was 513.3 ng/mg cell protein and the “Uptake, 60-min (Corrected for Concentration of 79 nM)” value (Sarcoma S-180 monolayers) was 1717 ng/mg cell protein.

For poly-L-lysine [PLL (MW 250,000)], the “Uptake, 1-min” value (Sarcoma S-180 monolayers) was 153.7 ng/mg cell protein, the “Uptake, 60-min” value (Sarcoma S-180 monolayers) was 695.4 ng/mg cell protein and the “Uptake, 60-min (Corrected for Concentration of 79 nM)” value (Sarcoma S-180 monolayers) was 4209 ng/mg cell protein.

poly-L-lysine [PLL] was tested, and the “Transformed/Normal (uptake ratio)” value [1] was 1.43, the “Cellular Uptake in 60 min.” value [1, 3] was 525 ng/mg cell protein and the “Cellular Uptake in 60 min.” value ([1]; Transformed phenotype) was 750 ng/mg cell protein. The “% of Controls (tumor weight)” value ([2]; Experiment No. 1) was 113%, the “Mean Tumor Weight” value ([2]; Experiment No. 1, daily i.v. 4 days from Day 11) was 6.05 ± 0.52 g and the “% of Controls (tumor weight)” value ([2]; Experiment No. 2) was 102%. The “Mean Tumor Weight” value ([2]; Experiment No. 2, daily i.v. 4 days from Day 12) was 6.13 ± 0.31 g.
